Test results taken from US20060276407A1, “Methods of treating hepatitis C virus” (Schering Corporation, priority 2005, published 2006).
Read-outs that look alike come from different tables or passages of the source.

Experiment: Phase 1 rising-single-dose pharmacokinetic study in healthy adult subjects (Example 1)
Format: in vivo, human
Conditions: for half-life / AUC / Tmax / Cmax / Vd/F: human; for AUC: po; for DN AUC(l) / DN AUC(tf) / DN Cmax: dose-normalized (to 50 mg)
Procedure: A Phase 1, randomized, third-party-blind (within dose level), placebo-controlled, rising-single-dose study of compounds of Formulae I-XXVI was conducted in healthy adult subjects.
Nine subjects in each group received either compound of Formula Ia (n=6) or placebo (n=3). Those subjects randomized to active compound received one of the following doses of compound of Formula Ia: 50, 100, 200, 400, 600, or 800 mg.
On Day 1, at least 10 hours prior to compound administration, an overnight fast was maintained until 4 hours following treatment administration, after which lunch was served. During the fasting period, no food or fluid (except noncarbonated water) was permitted; furthermore, drinking water was prohibited from 2 hours predose to 2 hours postdose, with the exception of the approximately 240 mL administered with the treatments.
Blood samples (7 mL each) for the determination of compound of Formula Ia concentrations were collected immediately prior to dosing (0 hour), and at 0.25, 0.5, 0.75, 1, 1.5, 2, 3, 4, 5, 6, 8, 10, 12, 18, 24, 36, 48, 72, and 144 hours postdose. The blood samples were collected into tubes containing EDTA. The samples were separated by centrifugation at 4° C. for 15 minutes at 1500 g to obtain the plasma, and the plasma samples frozen at −20° C. until assayed.
Plasma concentrations of compound of Formula Ia were determined using a validated liquid chromatography tandem mass spectrometry (LC-MS/MS) method. The assay lower limit of quantitation (LLOQ) was 0.50 ng/mL, and the method was validated over the concentration range of 0.50 to 1000 ng/mL.
The mean and percent coefficients of variation (% CV) were calculated for the plasma concentrations of compound of Formula Ia at each time point. Concentration values less than the assay LLOQ were reported as and set to zero in the calculations and tables. The plasma concentration-time data for compound of Formula Ia were subjected to pharmacokinetic analysis by noncompartmental methods using WinNonlin software. Nominal sampling times were used for pharmacokinetic analysis.
For each subject, the following compound of Formula Ia pharmacokinetic parameters were determined: • Cmax Maximum observed plasma concentration • Tmax Time of maximum observed plasma concentration • tf Time of final quantifiable sample • AUC(tf) Area under the plasma concentration-time curve from time 0 to tf • AUC(l) Area under the plasma concentration-time curve from time 0 to infinity [AUC(l)=[…]+C(tf)estimated/k, where k and C(tf)estimated are terminal elimination rate constant and estimated concentration at final quantifiable sample, respectively] • t½ Terminal-phase half-life (t½=ln 2/k) • CL/F Apparent total body clearance (CL/F=Dose/AUC[l]) • Vd/F Apparent volume of distribution (Vd/F=CL/F*(t1/2/0.693))
Dose-adjusted (to 50 mg) Cmax, AUC(l), and AUC(tf) values were also calculated. Cmax, Tmax, and if were the observed values. The terminal phase rate constant (k) was calculated as the negative of the slope of the log-linear terminal portion of the plasma concentration-time curve using linear regression (at least three time points). The number of points needed to determine the terminal phase rate constant was selected by WinNonlin software.
Summary statistics, including means, standard deviations, and coefficients of variation (CV) expressed as a percent, were computed for the single-dose plasma compound of Formula Ia concentration data at each sampling time point and for the derived pharmacokinetic parameters for each dose level using a standard program based on SAS/STAT (Release 6.12; SAS Institute Inc., North Carolina).
The log-transformed dose-adjusted (to 50 mg) Cmax and AUC values of compound of Formula Ia were statistically analyzed using an analysis of variance (ANOVA) model. The effect due to treatment (dose) was extracted. Ninety-five percent confidence intervals (CIs) for the means at each dose level, based on the nontransformed data, were provided. […]

[1] = plasma, single oral dose 50 mg, mean, n = 6
[2] = plasma, single oral dose 100 mg, mean, n = 6
[3] = plasma, single oral dose 200 mg, mean, n = 6
[4] = plasma, single oral dose 400 mg, mean, n = 6
[5] = plasma, single oral dose 600 mg, mean, n = 6
[6] = plasma, single oral dose 800 mg, mean, n = 6
[7] = single oral dose 50 mg, mean, n = 6
[8] = single oral dose 100 mg, mean, n = 6
[9] = single oral dose 200 mg, mean, n = 6
[10] = single oral dose 400 mg, mean, n = 6
[11] = single oral dose 600 mg, mean, n = 6
[12] = single oral dose 800 mg, mean, n = 6

## CC(C)(C)NC(=O)N[C@H](C(=O)N1C[C@H]2[C@@H]([C@H]1C(=O)NC(CC1CCC1)C(=O)C(N)=O)C2(C)C)C(C)(C)C (mixture of isomers) [Formula Ia, (1 R, 5S)-N-[3-Amino-1-(Cyclobutylmethyl)-2,3-Dioxopropyl]-3-[2(S)-[[[(1,1-Dimethylethyl)Amino]Carbonyl]Amino]-3,3-Dimethyl-1-Oxobutyl]-6,6-Dimethyl-3-Azabicyclo[3.1.0]Hexan-2(S)-Carboxamide]
plasma, oral, 100-800 mg dose cohorts, read-out: mean terminal phase half-life (t½)
  half-life: 7 to 15 h
plasma, 50 mg, single oral dose 50 mg, mean, n = 6, read-out: AUC(l)
  AUC: 181 ng·h/mL
plasma, 50 mg, single oral dose 50 mg, mean, n = 6, read-out: AUC(tf)
  AUC: 179 ng·h/mL
plasma, 100 mg, single oral dose 100 mg, mean, n = 6, read-out: AUC(l)
  AUC: 345 ng·h/mL
plasma, 100 mg, single oral dose 100 mg, mean, n = 6, read-out: AUC(tf)
  AUC: 337 ng·h/mL
plasma, 200 mg, single oral dose 200 mg, mean, n = 6, read-out: AUC(l)
  AUC: 846 ng·h/mL
plasma, 200 mg, single oral dose 200 mg, mean, n = 6, read-out: AUC(tf)
  AUC: 831 ng·h/mL
plasma, 400 mg, single oral dose 400 mg, mean, n = 6, read-out: AUC(l)
  AUC: 1560 ng·h/mL
plasma, 400 mg, single oral dose 400 mg, mean, n = 6, read-out: AUC(tf)
  AUC: 1530 ng·h/mL
plasma, 600 mg, single oral dose 600 mg, mean, n = 6, read-out: AUC(l)
  AUC: 2160 ng·h/mL
plasma, 600 mg, single oral dose 600 mg, mean, n = 6, read-out: AUC(tf)
  AUC: 2140 ng·h/mL
plasma, 800 mg, single oral dose 800 mg, mean, n = 6, read-out: AUC(l)
  AUC: 2320 ng·h/mL
plasma, 800 mg, single oral dose 800 mg, mean, n = 6, read-out: AUC(tf)
  AUC: 2300 ng·h/mL
plasma, across single oral doses 50-800 mg, read-out: median Tmax
  Tmax: 1 to 2.25 h
[1]
  Cmax: 58.7 ng/mL
  Vd/F: 1070 L
plasma, single oral dose 50 mg, median, n = 6, read-out: Tmax
  Tmax: 1.5 h
[2]
  Cmax: 111 ng/mL
  Vd/F: 2680 L
plasma, single oral dose 100 mg, mean, n = 6, read-out: t½ (converted)
  half-life: 6.84 h
plasma, single oral dose 100 mg, median, n = 6, read-out: Tmax
  Tmax: 2 h
[3]
  Cmax: 281 ng/mL
  Vd/F: 3840 L
plasma, single oral dose 200 mg, mean, n = 6, read-out: t½ (converted)
  half-life: 10.8 h
plasma, single oral dose 200 mg, median, n = 6, read-out: Tmax
  Tmax: 1 h
[4]
  Cmax: 445 ng/mL
  Vd/F: 5400 L
plasma, single oral dose 400 mg, mean, n = 6, read-out: t½ (converted)
  half-life: 15.4 h
plasma, single oral dose 400 mg, median, n = 6, read-out: Tmax
  Tmax: 1.75 h
[5]
  Cmax: 528 ng/mL
  Vd/F: 4110 L
plasma, single oral dose 600 mg, mean, n = 6, read-out: t½ (converted)
  half-life: 10.2 h
plasma, single oral dose 600 mg, median, n = 6, read-out: Tmax
  Tmax: 2.25 h
[6]
  Cmax: 616 ng/mL
  Vd/F: 5450 L
plasma, single oral dose 800 mg, mean, n = 6, read-out: t½ (converted)
  half-life: 10.1 h
plasma, single oral dose 800 mg, median, n = 6, read-out: Tmax
  Tmax: 1.25 h
Single oral dose 50 mg, mean, n = 6, value could not be well characterized because of low plasma concentrations in the terminal phase, read-out: t½ (converted)
  half-life: 2.69 h
Single oral dose 50 mg, mean
  DN AUC(l): 181 ng·h/mL
  DN AUC(tf): 179 ng·h/mL
  DN Cmax: 58.7 ng/mL
[7]
  CL/F: 277 L/h
  tf (time of final quantifiable sample): 15.3 h
Single oral dose 100 mg, mean
  DN AUC(l): 172 ng·h/mL
  DN AUC(tf): 169 ng·h/mL
  DN Cmax: 55.4 ng/mL
[8]
  CL/F: 315 L/h
  tf (time of final quantifiable sample): 26 h
Single oral dose 200 mg, mean
  DN AUC(l): 212 ng·h/mL
  DN AUC(tf): 208 ng·h/mL
  DN Cmax: 70.3 ng/mL
[9]
  CL/F: 254 L/h
  tf (time of final quantifiable sample): 40.0 h
Single oral dose 400 mg, mean
  DN AUC(l): 195 ng·h/mL
  DN AUC(tf): 191 ng·h/mL
  DN Cmax: 55.7 ng/mL
[10]
  CL/F: 279 L/h
  tf (time of final quantifiable sample): 52.0 h
Single oral dose 600 mg, mean
  DN AUC(l): 180 ng·h/mL
  DN AUC(tf): 178 ng·h/mL
  DN Cmax: 44.0 ng/mL
[11]
  CL/F: 288 L/h
  tf (time of final quantifiable sample): 52 h
Single oral dose 800 mg, mean
  DN AUC(l): 145 ng·h/mL
  DN AUC(tf): 144 ng·h/mL
  DN Cmax: 38.5 ng/mL
[12]
  CL/F: 399 L/h
  tf (time of final quantifiable sample): 56 h
